Data taken from PubChem BioAssay AID1963835 (Molecular Pharmacology Branch, DTP, NCI, 2024).

Tested on: 699152-130-R-J1-PDC complex spheroid viability
Assay: Anticancer human tumor 699152-130-R-J1-PDC patient-derived pancreatic carcinoma cell line growth inhibition [POLQ]
Details: for IC50: curve of first compound; for viability, T/C: stronger effect = lower value
Method in brief: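 Patient-derived tumour cells were co-cultured with HUVEC and mesenchymal stem cells as multicellular spheroids at 37 °C. They were treated with POLQ inhibitors (novobiocin, ART-558, RP6685) alone or combined with other agents. Top concentrations were at or near clinical Cmax (otherwise 10 microM; SN-38 at 1 microM), decreasing in half-log steps.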

[1] = second compound 0.0316 µM, first compound 0.0316 µM
[2] = second compound 0.0316 µM, first compound 0.1 µM
[3] = second compound 0.0316 µM, first compound 0.316 µM
[4] = second compound 0.0316 µM, first compound 1 µM
[5] = second compound 0.0316 µM, first compound 3.16 µM
[6] = second compound 0.0316 µM, first compound 10 µM
[7] = second compound 0.1 µM, first compound 0.0316 µM
[8] = second compound 0.1 µM, first compound 0.1 µM
[9] = second compound 0.1 µM, first compound 0.316 µM
[10] = second compound 0.1 µM, first compound 1 µM
[11] = second compound 0.1 µM, first compound 3.16 µM
[12] = second compound 0.1 µM, first compound 10 µM
[13] = second compound 0.316 µM, first compound 0.0316 µM
[14] = second compound 0.316 µM, first compound 0.1 µM
[15] = second compound 0.316 µM, first compound 0.316 µM
[16] = second compound 0.316 µM, first compound 1 µM
[17] = second compound 0.316 µM, first compound 3.16 µM
[18] = second compound 0.316 µM, first compound 10 µM
[19] = second compound 1 µM, first compound 0.0316 µM
[20] = second compound 1 µM, first compound 0.1 µM
[21] = second compound 1 µM, first compound 0.316 µM
[22] = second compound 1 µM, first compound 1 µM
[23] = second compound 1 µM, first compound 3.16 µM
[24] = second compound 1 µM, first compound 10 µM
[25] = second compound 3.16 µM, first compound 0.0316 µM
[26] = second compound 3.16 µM, first compound 0.1 µM
[27] = second compound 3.16 µM, first compound 0.316 µM
[28] = second compound 3.16 µM, first compound 1 µM
[29] = second compound 3.16 µM, first compound 3.16 µM
[30] = second compound 3.16 µM, first compound 10 µM
[31] = second compound 10 µM, first compound 0.0316 µM
[32] = second compound 10 µM, first compound 0.1 µM
[33] = second compound 10 µM, first compound 0.316 µM
[34] = second compound 10 µM, first compound 1 µM
[35] = second compound 10 µM, first compound 3.16 µM
[36] = second compound 10 µM, first compound 10 µM
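Further: spheroids exposed to agents for 7 days before viability reading.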
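Wherever viability, T/C is given: percent of DMSO vehicle control viability so 100% = vehicle and 0% = no viable signal.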

## CC1COCCN1c1cc(C2(S(C)(=N)=O)CC2)nc(-c2ccnc3[nH]ccc23)n1 (stereo not drawn) + Nc1ccc(C#CCN(C(=O)Cc2ncc(C(F)(F)F)cc2C(F)(F)F)c2ccc(F)cc2)nn1
Second compound 0.0316 µM
  IC50: > 10 µM
Second compound 0.1 µM
  IC50: > 10 µM
Second compound 0.316 µM
  IC50: > 10 µM
Second compound 1 µM
  IC50: > 10 µM
Second compound 3.16 µM
  IC50: > 10 µM
Second compound 10 µM
  IC50: > 10 µM
[1]
  viability, T/C: 109%
[2]
  viability, T/C: 100%
[3]
  viability, T/C: 89.4%
[4]
  viability, T/C: 88.7%
[5]
  viability, T/C: 75.8%
[6]
  viability, T/C: 68.9%
[7]
  viability, T/C: 106%
[8]
  viability, T/C: 92.7%
[9]
  viability, T/C: 96.6%
[10]
  viability, T/C: 97.6%
[11]
  viability, T/C: 76.2%
[12]
  viability, T/C: 62.3%
[13]
  viability, T/C: 104%
[14]
  viability, T/C: 113%
[15]
  viability, T/C: 110%
[16]
  viability, T/C: 94.4%
[17]
  viability, T/C: 80.1%
[18]
  viability, T/C: 68.9%
[19]
  viability, T/C: 114%
[20]
  viability, T/C: 96.1%
[21]
  viability, T/C: 99.9%
[22]
  viability, T/C: 86%
[23]
  viability, T/C: 74.7%
[24]
  viability, T/C: 66.1%
[25]
  viability, T/C: 108%
[26]
  viability, T/C: 93.4%
[27]
  viability, T/C: 123%
[28]
  viability, T/C: 113%
[29]
  viability, T/C: 88.1%
[30]
  viability, T/C: 76.6%
[31]
  viability, T/C: 110%
[32]
  viability, T/C: 105%
[33]
  viability, T/C: 106%
[34]
  viability, T/C: 95.5%
[35]
  viability, T/C: 82.6%
[36]
  viability, T/C: 77.2%

## COc1ccc([C@@H](O)c2cc(-c3ncnc4cc(N5CCOCC5)ccc34)c(F)cc2Cl)nn1 + COC1C(OC(N)=O)C(O)C(Oc2ccc3c(O)c(NC(=O)c4ccc(O)c(CC=C(C)C)c4)c(=O)oc3c2C)OC1(C)C
Second compound 0.0316 µM
  IC50: 3.83 µM
Second compound 0.1 µM
  IC50: 4.13 µM
Second compound 0.316 µM
  IC50: 3.83 µM
Second compound 1 µM
  IC50: 3.58 µM
Second compound 3.16 µM
  IC50: 4.02 µM
Second compound 10 µM
  IC50: 4.25 µM
[1]
  viability, T/C: 94.5%
[2]
  viability, T/C: 96.9%
[3]
  viability, T/C: 85.6%
[4]
  viability, T/C: 82.8%
[5]
  viability, T/C: 53.9%
[6]
  viability, T/C: 26.3%
[7]
  viability, T/C: 112%
[8]
  viability, T/C: 87%
[9]
  viability, T/C: 87%
[10]
  viability, T/C: 83%
[11]
  viability, T/C: 56.1%
[12]
  viability, T/C: 27.4%
[13]
  viability, T/C: 113%
[14]
  viability, T/C: 107%
[15]
  viability, T/C: 92.2%
[16]
  viability, T/C: 80.4%
[17]
  viability, T/C: 54.7%
[18]
  viability, T/C: 24%
[19]
  viability, T/C: 118%
[20]
  viability, T/C: 98.1%
[21]
  viability, T/C: 96.9%
[22]
  viability, T/C: 70.1%
[23]
  viability, T/C: 58.5%
[24]
  viability, T/C: 22.6%
[25]
  viability, T/C: 98.3%
[26]
  viability, T/C: 108%
[27]
  viability, T/C: 86.6%
[28]
  viability, T/C: 88.7%
[29]
  viability, T/C: 56.2%
[30]
  viability, T/C: 21.6%
[31]
  viability, T/C: 101%
[32]
  viability, T/C: 90.8%
[33]
  viability, T/C: 90.9%
[34]
  viability, T/C: 71.6%
[35]
  viability, T/C: 60.6%
[36]
  viability, T/C: 27.7%

## COc1cccc(OCCCN)c1-c1cc(Nc2cnc(C#N)cn2)n[nH]1 + Cc1cccc(N(C)C(=O)C2C(O)CCN2c2nc(C)cc(C(F)(F)F)c2C#N)c1
Second compound 0.0316 µM
  IC50: > 1 µM
Second compound 0.1 µM
  IC50: > 1 µM
Second compound 0.316 µM
  IC50: > 1 µM
Second compound 1 µM
  IC50: > 1 µM
Second compound 3.16 µM
  IC50: > 1 µM
Second compound 10 µM
  IC50: > 1 µM
Second compound 0.0316 µM, first compound 0.00316 µM
  viability, T/C: 93%
Second compound 0.0316 µM, first compound 0.01 µM
  viability, T/C: 75.7%
[1]
  viability, T/C: 64.7%
[2]
  viability, T/C: 63.1%
[3]
  viability, T/C: 50.8%
[4]
  viability, T/C: 51.2%
Second compound 0.1 µM, first compound 0.00316 µM
  viability, T/C: 89.4%
Second compound 0.1 µM, first compound 0.01 µM
  viability, T/C: 85.7%
[7]
  viability, T/C: 67.4%
[8]
  viability, T/C: 58.1%
[9]
  viability, T/C: 55.5%
[10]
  viability, T/C: 49.1%
Second compound 0.316 µM, first compound 0.00316 µM
  viability, T/C: 100%
Second compound 0.316 µM, first compound 0.01 µM
  viability, T/C: 91.3%
[13]
  viability, T/C: 61.5%
[14]
  viability, T/C: 59.6%
[15]
  viability, T/C: 54.5%
[16]
  viability, T/C: 46.7%
Second compound 1 µM, first compound 0.00316 µM
  viability, T/C: 92.8%
Second compound 1 µM, first compound 0.01 µM
  viability, T/C: 90.7%
[19]
  viability, T/C: 61.2%
[20]
  viability, T/C: 54.1%
[21]
  viability, T/C: 52.8%
[22]
  viability, T/C: 48.7%
Second compound 3.16 µM, first compound 0.00316 µM
  viability, T/C: 86.3%
Second compound 3.16 µM, first compound 0.01 µM
  viability, T/C: 86.4%
[25]
  viability, T/C: 67.2%
[26]
  viability, T/C: 56.3%
[27]
  viability, T/C: 51.2%
[28]
  viability, T/C: 57.3%
Second compound 10 µM, first compound 0.00316 µM
  viability, T/C: 98.1%
Second compound 10 µM, first compound 0.01 µM
  viability, T/C: 88%
[31]
  viability, T/C: 61.6%
[32]
  viability, T/C: 59%
[33]
  viability, T/C: 58.4%
[34]
  viability, T/C: 56.1%

## O=C(Nc1ccc(O)c(NS(=O)(=O)c2ccc(F)cc2)c1)c1ccc(-c2ccccc2)cc1 + COC1C(OC(N)=O)C(O)C(Oc2ccc3c(O)c(NC(=O)c4ccc(O)c(CC=C(C)C)c4)c(=O)oc3c2C)OC1(C)C
Second compound 0.0316 µM
  IC50: > 10 µM
Second compound 0.1 µM
  IC50: > 10 µM
Second compound 0.316 µM
  IC50: > 10 µM
Second compound 1 µM
  IC50: > 10 µM
Second compound 3.16 µM
  IC50: > 10 µM
Second compound 10 µM
  IC50: > 10 µM
[1]
  viability, T/C: 105%
[2]
  viability, T/C: 123%
[3]
  viability, T/C: 117%
[4]
  viability, T/C: 104%
[5]
  viability, T/C: 122%
[6]
  viability, T/C: 80.8%
[7]
  viability, T/C: 103%
[8]
  viability, T/C: 104%
[9]
  viability, T/C: 117%
[10]
  viability, T/C: 101%
[11]
  viability, T/C: 101%
[12]
  viability, T/C: 94.6%
[13]
  viability, T/C: 103%
[14]
  viability, T/C: 101%
[15]
  viability, T/C: 95.7%
[16]
  viability, T/C: 101%
[17]
  viability, T/C: 117%
[18]
  viability, T/C: 77.3%
[19]
  viability, T/C: 115%
[20]
  viability, T/C: 99.6%
[21]
  viability, T/C: 97.2%
[22]
  viability, T/C: 94.5%
[23]
  viability, T/C: 103%
[24]
  viability, T/C: 82.3%
[25]
  viability, T/C: 108%
[26]
  viability, T/C: 111%
[27]
  viability, T/C: 113%
[28]
  viability, T/C: 119%
[29]
  viability, T/C: 105%
[30]
  viability, T/C: 89.5%
[31]
  viability, T/C: 95.3%
[32]
  viability, T/C: 107%
[33]
  viability, T/C: 102%
[34]
  viability, T/C: 95.5%
[35]
  viability, T/C: 103%
[36]
  viability, T/C: 86.3%
